In ChEMBL document CHEMBL5634164, “Absolute Configuration of Oxabornyl Polyenes Prugosenes A1-A3 and Structural Revision of Prugosene A2” (J Nat Prod, 2024):

Assays:
[1] = tested on: Respiratory syncytial virus; experiment: Antiviral activity against RSV A2 ATCC VR-1540 infected in HEp-2 cells assessed as inhibition of virus induced cytopathic effect measured after 72 hrs; type: functional, organism-based; conditions: human respiratory syncytial virus, A2 ATCC VR-1540, HEp-2, 72 h
[2] = Cytotoxicity against HEp-2 cells; type: toxicity, cell-based; conditions: human

Row | SMILES | IC50 [1] [µM] | CC50 [2] [µM]
1 | CC1=C[C@@](C)(O)[C@H](/C(C)=C/C=C/C=C/C=C/C=C/C2(C)C3OC(=O)C2(C)C(=O)C3C)O[C@H]1C (stereo partly drawn) | 12 | > 100
2 | CC1=C[C@@](C)(O)[C@@H](/C(C)=C/C=C/C=C/C=C/C=C/C2(C)C3OC(=O)C2(C)C(=O)C3C)O[C@H]1C (stereo partly drawn) | 25 | > 100
3 | CC1=C[C@](C)(O)[C@H](C)O[C@@H]1/C(C)=C/C=C/C=C/C=C/C=C/C1(C)C2OC(=O)C1(C)C(=O)C2C (stereo partly drawn) | 6.3 | > 100
4 | NC(=O)c1ncn([C@@H]2O[C@H](CO)[C@@H](O)[C@H]2O)n1 [RIBAVIRIN] | 15 | > 100
